Data from patent publication US8618046B2, “Treatment of atherosclerosis with cholesterol ester transport protein mimotopes” (Affiris AG, priority 2007, dated 2013).
Where no end group is shown, it is not given here.

Legend:
injected peptide-BSA = assay: Titer to the injected peptide in sera of immunised animals (peptide ELISA); type: in vivo, mouse; conditions: FIG. 11; Balb/c mice, 30 μg peptide, Alum as adjuvant; S3 = 2 weeks after 3rd injection; detection αIgG
Experimental: Balb/c mice/30 μg Peptide, 2 injections in 2 week intervals. S3=2 weeks after 3rd injection. Alum as adjuvant. […] Detection: αIgG:
(§1) Inhibiting as well as some non-inhibiting peptides were coupled to KLH and injected into mice (wildtype or CETP-transgenic mice; subcutaneously into the flank or intra-dermaly into the ears) or rabbits (subcutaneously into the flank) together with an appropriate adjuvant (aluminium hydroxide and Gerbu 100 for mice and aluminium hydroxide or CFA/IFA for rabbits).
(§2) Titers to injected peptides as well as to the original CETP epitope were determined. In addition, for selected sera also immune response to CETP protein was measured (Results see FIGS. 7a to 7d and FIGS. 19a to 19e).
Subcutaneous injections in the flank were performed in week 1, week 3 and week 7 with 30 μg peptide-KLH per mouse. Intradermal injections in the ear were performed in week 1, week 3 and week 6 with 10 μg peptide-KLH per mouse. Sera were taken 2 weeks after the 3rd injection. Vaccine formulation with Alum (always 1 mg per mouse): up to 250 μl, injected into one flank. The Alum formulation with 1 ml per mouse (500 μl into each flank) was in 1×PBS as buffer. […]

original epitope (p4073) = assay: Titer to the original CETP epitope in sera of immunised animals (peptide ELISA); type: in vivo, mouse; conditions: for titer, original epitope-BSA: FIG. 11, Balb/c mice, 30 μg peptide, Alum as adjuvant, S3, coating 1 μM p4073-BSA, detection αIgG
Experimental: (§3) Balb/c mice/30 μg Peptide, 2 injections in 2 week intervals. S3=2 weeks after 3rd injection. Alum as adjuvant. Titers against original epitope (p4073) induced by injection of mimotopes. Well coating: 50 μl of 1 μM p4073-BSA or 1 μg/ml activated KLH. Detection: αIgG:
as §1, §2
(§4) Subcutaneous injections in the flank were performed in week 1, week 3 and week 7 with 30 μg peptide-KLH per mouse. Intradermal injections in the ear were performed in week 1, week 3 and week 6 with 10 μg peptide-KLH per mouse. Sera were taken 2 weeks after the 3rd injection. Vaccine formulation with Alum (always 1 mg per mouse): up to 250 μl, injected into one flank. The Alum formulation with 1 ml per mouse (500 μl into each flank) was in 1×PBS as buffer.
Vaccine formulation with Gerbu Adjuvant 100 (Gerbu Cat. Nr. #3100; always 50 μl adjuvant per mouse): 200 μl, 100 μl injected into each flank comprising 1×HEPES as buffer. […]

irrelevant peptide-BSA = assay: Titer to irrelevant peptide in sera of immunised animals (peptide ELISA); type: in vivo, mouse; conditions: FIG. 11; Balb/c mice, 30 μg peptide, Alum as adjuvant; S3; detection αIgG
Experimental: as §3, §4
Vaccine formulation with Gerbu Adjuvant 100 (Gerbu Cat. Nr. #3100; always 50 μl adjuvant per mouse): 200 μl, 100 μl injected into each flank comprising 1×HEPES as buffer.
Female Balb/c mice, five mice per group, were subcutaneously immunized with 30 μg peptide coupled to KLH. Control groups were administered KLH or C-[…] (SEQ ID NO. 147). As adjuvant alum was used. […] The in vitro ELISA assay to determine the antibody titer was performed with pooled sera after two vaccinations in a two week interval (S2; see FIGS. 7a to 7d). The wells of the ELISA plate were coated with KLH (positive control), mimotope-BSA conjugate, C-[…] (SEQ ID NO. 147) and a irrelevant peptide-BSA conjugate (negative control). The detection was performed with anti-mouse IgG.

recombinant GST-CETP = assay: Anti-protein ELISA of sera of immunised mice, plates coated with recombinant GST-CETP; type: in vivo
From the text: (§5) FIGS. 12a and 12b show the in vivo induction of CETP specific antibodies by the administration of the mimotopes of the invention. Titers to p4073 and its correlation to titers to CETP of selected groups (which show high titers against p4073): gr.4, gr.9, gr.10, gr.14, gr.16-20/gr.1 (KLH), gr.2 (original epitope) as controls. Coating: recombinant GST-CETP or purified rabbit CETP, respectively:
(§6) Sera of each group (5 Balb/c mice each) were combined, diluted 1:100 and tested on ELISA plates coated with recombinant GST-CETP or rabbit CETP, respectively. Detection of bound antibodies was with algG.
as §2

rabbit CETP = assay: Anti-protein ELISA of sera of immunised mice, plates coated with purified rabbit CETP; type: in vivo, mouse
From the text: as §5, §6, §2

CETP = CETP activity assay: human serum mixed with serum from vaccinated wild-type mice; type: biochemical; conditions: FIGS. 15 to 17 and remarks in the example set-up table; sera of vaccinated mice
[1] = FIG. 12a, sera of immunised mice
[2] = FIG. 12a, sera of immunised mice, purified rabbit CETP
[3] = FIG. 12b, sera of immunised mice
[4] = FIG. 12b, sera of immunised mice, purified rabbit CETP
[5] = FIG. 13, combined sera of 5 Balb/c mice, diluted 1:100

Row | Substance | titer, injected peptide-BSA (injected peptide-BSA) | titer, original epitope-BSA (original epitope (p4073)) | titer, irrelevant peptide-BSA (irrelevant peptide-BSA) | ELISA signal, recombinant GST-CETP (recombinant GST-CETP; [1]) | ELISA signal, rabbit CETP (rabbit CETP; [2]) | ELISA signal, recombinant GST-CETP (recombinant GST-CETP; [3]) | ELISA signal, rabbit CETP (rabbit CETP; [4]) | ELISA signal, recombinant GST-CETP (recombinant GST-CETP; [5]) | ELISA signal, rabbit CETP (rabbit CETP; [5]) | inhibition of CETP activity in human serum (in words) (CETP) | antibody response to the original CETP epitope (in words) (original epitope (p4073); coupled to KLH, mice and rabbits)
1 | p4324-KLH: C-FGFPSHLIIDWAQSLS coupled to KLH (CFGFPSHLIIDWAQSLS; also: coupled to KLH) | 12.570 | 7.600 | 10 | 0.58 | 0.28 | – | – | – | – | – | –
2 | p4366-KLH: C-FGFPSHLIIDWSQSLS coupled to KLH (CFGFPSHLIIDWSQSLS; also: coupled to KLH) | 4.700 | 3.600 | 10 | – | – | 0.4 | 0.65 | – | – | – | –
3 | p4362-KLH/Alum: C-FGFPAHVYIDWLQSLS coupled to KLH, Alum (CFGFPAHVYIDWLQSLS; also: coupled to KLH) | – | – | – | – | – | – | – | 0.86 | 0.94 | inhibits significantly CETP activity | –
4 | p4353-KLH: C-FGFPAHVSIDWLQSLT coupled to KLH (CFGFPAHVSIDWLQSLT; also: coupled to KLH) | 11.200 | 8.650 | 10 | 0.57 | 0.39 | – | – | – | – | – | –
5 | C-RMFPESFLDTLW (N-terminal Cys; CETP mimotope) [P12-21] | – | – | – | – | – | – | – | – | – | – | induced an immune response to the original CETP epitope in wt mice and in rabbits
6 | p4359-KLH: C-FGFPAHIIIDWLQSLS coupled to KLH (CFGFPAHIIIDWLQSLS; also: coupled to KLH) | 8.540 | 5.340 | 10 | 0.79 | 0.54 | – | – | – | – | – | –
7 | p4352-KLH: C-FGFPAHVSIDWLQSIS coupled to KLH (CFGFPAHVSIDWLQSIS; also: coupled to KLH) | 19.680 | 12.070 | 10 | 0.48 | 0.28 | – | – | – | – | – | –
8 | p4342-KLH: C-FSFPAHVSIDWLQSLS coupled to KLH (CFSFPAHVSIDWLQSLS; also: coupled to KLH) | 4.620 | 1.610 | 10 | – | – | 0.38 | 0.41 | – | – | – | –
9 | p4347-KLH: C-FGFPAHVSIDWLQLLS coupled to KLH (CFGFPAHVSIDWLQLLS; also: coupled to KLH) | 12.000 | 9.160 | 10 | 0.35 | 0.2 | – | – | – | – | – | –
10 | p4343-KLH: C-FYFPAHVSIDWLQSLS coupled to KLH (CFYFPAHVSIDWLQSLS; also: coupled to KLH) | 5.580 | 2.900 | 10 | – | – | 0.61 | 1.05 | – | – | C-33: recogn. protein/not in- | –
11 | p4344-KLH: C-FDFPAHVSIDWLQSLS coupled to KLH (CFDFPAHVSIDWLQSLS; also: coupled to KLH) | 12.200 | 3.580 | 10 | – | – | 0.35 | 0.43 | – | – | – | –
